Laboratory results taken from publication PMC6019134, “1,2,6-Thiadiazinones as Novel Narrow Spectrum Calcium/Calmodulin-Dependent Protein Kinase Kinase 2 (CaMKK2) Inhibitors” (Molecules : A Journal of Synthetic Chemistry and Natural …, 2018).

How the values were obtained:
Assay in all cases: DSF thermal shift, kinase panel
Type in all cases: binding
Settings in all cases: 10 μM compound
CAMK1G = molecular target: T1, CAMK1G (Homo sapiens, UniProt Q96NX5)
T1 construct: purchased in-house (home-made panel, SGC-style construct names)
How it was run: (§1)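 Recombinant kinase (E. coli-expressed, His-tag removed by TEV, SEC-polished) at 1 µM in 100 mM K2HPO4 pH 7.5, 150 mM NaCl, 10% glycerol with dye, plus 10 µM compound. Heated 25 °C to 95 °C at 0.05 °C/s; dTm from Boltzmann fits versus 0.2% DMSO control.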

SRPK2A = molecular target: T2, SRPK2A (Homo sapiens, UniProt P78362)
T2 construct: purchased in-house (home-made panel, SGC-style construct names)
How it was run: as §1

STK17AA = molecular target: T3, STK17AA (Homo sapiens, UniProt Q9UEE5)
T3 construct: TEV-cleavable (cleaved yes); made in house; host or cells: E. coli
T3 sequence (Q9UEE5 1-414): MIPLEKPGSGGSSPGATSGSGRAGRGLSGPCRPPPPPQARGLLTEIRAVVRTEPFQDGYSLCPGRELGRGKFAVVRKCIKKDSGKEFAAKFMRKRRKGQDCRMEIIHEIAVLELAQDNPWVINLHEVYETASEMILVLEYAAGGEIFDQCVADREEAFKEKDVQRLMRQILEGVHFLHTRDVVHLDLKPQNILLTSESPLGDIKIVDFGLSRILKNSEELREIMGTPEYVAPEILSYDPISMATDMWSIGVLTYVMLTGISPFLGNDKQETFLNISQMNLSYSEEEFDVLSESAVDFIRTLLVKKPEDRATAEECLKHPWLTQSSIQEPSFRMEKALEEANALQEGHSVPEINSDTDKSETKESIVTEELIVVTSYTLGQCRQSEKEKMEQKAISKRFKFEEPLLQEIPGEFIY
How it was run: as §1

PRPF4BA = molecular target: T4, PRPF4BA (Homo sapiens, UniProt Q13523)
T4 construct: purchased in-house (home-made panel, SGC-style construct names)
How it was run: as §1

STK6A = molecular target: T5, STK6A (Homo sapiens, UniProt O14965)
T5 construct: TEV-cleavable (cleaved yes); made in house; host or cells: E. coli
T5 sequence (O14965 1-403): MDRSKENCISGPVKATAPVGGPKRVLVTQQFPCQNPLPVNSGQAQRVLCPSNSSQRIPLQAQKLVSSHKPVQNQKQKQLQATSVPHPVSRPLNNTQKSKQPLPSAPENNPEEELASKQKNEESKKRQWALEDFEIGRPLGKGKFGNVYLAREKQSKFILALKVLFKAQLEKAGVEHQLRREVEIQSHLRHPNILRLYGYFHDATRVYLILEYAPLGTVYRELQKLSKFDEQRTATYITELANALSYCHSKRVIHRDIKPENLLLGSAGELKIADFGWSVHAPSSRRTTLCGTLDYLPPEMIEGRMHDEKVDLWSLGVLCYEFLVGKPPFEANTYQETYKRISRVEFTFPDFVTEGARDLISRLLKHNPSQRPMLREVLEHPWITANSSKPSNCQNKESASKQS
How it was run: as §1

CSNK1G3 = molecular target: T6, CSNK1G3 (Homo sapiens, UniProt Q9Y6M4)
T6 construct: purchased in-house (home-made panel, SGC-style construct names)
How it was run: as §1

CAMK1D = molecular target: T7, CAMK1D (Homo sapiens, UniProt Q8IU85)
T7 construct: purchased in-house (home-made panel, SGC-style construct names)
How it was run: as §1

RPS6KA1A = molecular target: T8, RPS6KA1A (Homo sapiens, UniProt Q15418)
T8 construct: purchased in-house (home-made panel, SGC-style construct names)
How it was run: as §1

STK24A = molecular target: T9, STK24A (Homo sapiens, UniProt Q9Y6E0)
T9 construct: TEV-cleavable (cleaved yes); made in house; host or cells: E. coli
How it was run: as §1

T8 sequence (Q15418 whole entry): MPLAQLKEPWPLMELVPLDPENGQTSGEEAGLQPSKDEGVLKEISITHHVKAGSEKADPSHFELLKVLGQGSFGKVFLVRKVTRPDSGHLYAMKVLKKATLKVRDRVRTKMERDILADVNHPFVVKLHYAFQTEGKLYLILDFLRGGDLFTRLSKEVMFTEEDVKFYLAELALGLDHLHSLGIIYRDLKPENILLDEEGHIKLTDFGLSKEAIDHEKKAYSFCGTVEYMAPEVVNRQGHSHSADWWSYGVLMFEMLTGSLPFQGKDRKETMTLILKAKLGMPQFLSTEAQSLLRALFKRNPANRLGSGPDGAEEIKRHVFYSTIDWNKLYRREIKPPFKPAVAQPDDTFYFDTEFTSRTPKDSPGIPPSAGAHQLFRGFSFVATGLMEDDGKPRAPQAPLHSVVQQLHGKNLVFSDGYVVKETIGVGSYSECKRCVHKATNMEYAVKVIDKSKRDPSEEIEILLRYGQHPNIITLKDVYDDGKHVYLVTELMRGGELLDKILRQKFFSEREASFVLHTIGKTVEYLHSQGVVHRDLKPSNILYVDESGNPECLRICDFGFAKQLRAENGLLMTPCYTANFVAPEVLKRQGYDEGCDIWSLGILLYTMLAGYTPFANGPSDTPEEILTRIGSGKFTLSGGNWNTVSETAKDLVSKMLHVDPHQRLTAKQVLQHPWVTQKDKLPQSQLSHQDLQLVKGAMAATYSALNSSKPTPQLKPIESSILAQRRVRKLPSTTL
T9 sequence (Q9Y6E0 whole entry): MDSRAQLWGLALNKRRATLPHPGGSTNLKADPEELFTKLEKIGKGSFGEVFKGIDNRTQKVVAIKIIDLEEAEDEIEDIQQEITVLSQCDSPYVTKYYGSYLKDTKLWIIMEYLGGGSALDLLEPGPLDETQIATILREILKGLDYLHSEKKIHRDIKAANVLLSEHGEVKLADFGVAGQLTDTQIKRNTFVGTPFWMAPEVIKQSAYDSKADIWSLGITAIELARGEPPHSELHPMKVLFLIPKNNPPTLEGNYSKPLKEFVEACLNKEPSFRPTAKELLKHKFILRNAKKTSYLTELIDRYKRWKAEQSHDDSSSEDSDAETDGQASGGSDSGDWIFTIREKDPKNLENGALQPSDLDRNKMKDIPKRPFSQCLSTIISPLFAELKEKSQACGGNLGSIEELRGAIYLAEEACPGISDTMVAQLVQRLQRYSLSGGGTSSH
T4 sequence (Q13523 whole entry): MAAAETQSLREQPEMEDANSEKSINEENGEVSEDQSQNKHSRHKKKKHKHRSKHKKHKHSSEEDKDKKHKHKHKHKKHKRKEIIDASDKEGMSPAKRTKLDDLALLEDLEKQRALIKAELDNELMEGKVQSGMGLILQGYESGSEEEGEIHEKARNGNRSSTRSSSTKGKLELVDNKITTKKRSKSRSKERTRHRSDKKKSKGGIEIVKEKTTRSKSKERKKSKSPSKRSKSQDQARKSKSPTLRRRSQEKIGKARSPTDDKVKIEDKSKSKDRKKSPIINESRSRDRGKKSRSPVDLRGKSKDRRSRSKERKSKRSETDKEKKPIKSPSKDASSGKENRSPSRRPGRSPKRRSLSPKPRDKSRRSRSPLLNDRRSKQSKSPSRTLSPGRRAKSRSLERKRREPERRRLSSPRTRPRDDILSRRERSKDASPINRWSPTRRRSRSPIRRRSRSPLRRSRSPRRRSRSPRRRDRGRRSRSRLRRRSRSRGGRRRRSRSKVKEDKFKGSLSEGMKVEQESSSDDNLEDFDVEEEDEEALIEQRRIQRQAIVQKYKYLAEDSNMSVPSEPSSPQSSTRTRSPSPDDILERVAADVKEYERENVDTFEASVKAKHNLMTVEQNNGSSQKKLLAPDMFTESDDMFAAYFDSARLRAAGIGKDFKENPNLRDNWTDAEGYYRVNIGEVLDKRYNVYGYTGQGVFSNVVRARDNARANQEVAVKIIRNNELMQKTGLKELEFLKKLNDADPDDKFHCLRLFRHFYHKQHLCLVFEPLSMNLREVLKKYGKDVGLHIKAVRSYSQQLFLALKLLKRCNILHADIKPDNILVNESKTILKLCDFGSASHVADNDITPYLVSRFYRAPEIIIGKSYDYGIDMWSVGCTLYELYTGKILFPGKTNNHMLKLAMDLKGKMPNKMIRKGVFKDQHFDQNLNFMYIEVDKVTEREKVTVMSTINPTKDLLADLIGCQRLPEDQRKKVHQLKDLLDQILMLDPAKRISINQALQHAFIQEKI
T2 sequence (P78362 whole entry): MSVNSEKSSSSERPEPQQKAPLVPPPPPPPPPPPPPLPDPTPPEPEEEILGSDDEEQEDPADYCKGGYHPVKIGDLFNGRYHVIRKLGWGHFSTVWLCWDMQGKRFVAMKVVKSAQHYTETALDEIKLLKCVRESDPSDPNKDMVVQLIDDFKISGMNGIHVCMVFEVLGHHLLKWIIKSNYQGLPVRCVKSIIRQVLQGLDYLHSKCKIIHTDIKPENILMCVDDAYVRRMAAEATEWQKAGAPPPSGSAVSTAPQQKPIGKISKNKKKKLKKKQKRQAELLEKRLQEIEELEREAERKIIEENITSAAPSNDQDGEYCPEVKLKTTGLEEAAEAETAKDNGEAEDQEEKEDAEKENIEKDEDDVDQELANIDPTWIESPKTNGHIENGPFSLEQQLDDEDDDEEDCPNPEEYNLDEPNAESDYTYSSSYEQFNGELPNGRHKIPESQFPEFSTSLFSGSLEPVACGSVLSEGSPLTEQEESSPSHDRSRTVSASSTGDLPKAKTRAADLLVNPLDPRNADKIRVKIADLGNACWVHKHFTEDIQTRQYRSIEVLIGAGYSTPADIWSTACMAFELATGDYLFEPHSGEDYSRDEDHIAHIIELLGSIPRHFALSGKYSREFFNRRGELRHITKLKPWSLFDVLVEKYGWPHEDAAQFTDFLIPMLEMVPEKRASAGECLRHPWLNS
T6 sequence (Q9Y6M4 whole entry): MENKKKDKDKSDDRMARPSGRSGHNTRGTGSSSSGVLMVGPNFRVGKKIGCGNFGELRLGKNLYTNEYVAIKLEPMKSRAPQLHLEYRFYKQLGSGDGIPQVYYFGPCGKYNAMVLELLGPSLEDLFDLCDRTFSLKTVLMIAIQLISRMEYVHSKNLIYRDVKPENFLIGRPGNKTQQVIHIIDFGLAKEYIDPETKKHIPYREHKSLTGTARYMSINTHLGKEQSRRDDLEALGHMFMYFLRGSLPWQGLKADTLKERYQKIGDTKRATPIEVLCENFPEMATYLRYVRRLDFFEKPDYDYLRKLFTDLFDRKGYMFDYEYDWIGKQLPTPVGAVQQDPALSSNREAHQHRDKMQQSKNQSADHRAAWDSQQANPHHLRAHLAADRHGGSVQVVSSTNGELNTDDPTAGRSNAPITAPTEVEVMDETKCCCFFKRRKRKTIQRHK
T7 sequence (Q8IU85 whole entry): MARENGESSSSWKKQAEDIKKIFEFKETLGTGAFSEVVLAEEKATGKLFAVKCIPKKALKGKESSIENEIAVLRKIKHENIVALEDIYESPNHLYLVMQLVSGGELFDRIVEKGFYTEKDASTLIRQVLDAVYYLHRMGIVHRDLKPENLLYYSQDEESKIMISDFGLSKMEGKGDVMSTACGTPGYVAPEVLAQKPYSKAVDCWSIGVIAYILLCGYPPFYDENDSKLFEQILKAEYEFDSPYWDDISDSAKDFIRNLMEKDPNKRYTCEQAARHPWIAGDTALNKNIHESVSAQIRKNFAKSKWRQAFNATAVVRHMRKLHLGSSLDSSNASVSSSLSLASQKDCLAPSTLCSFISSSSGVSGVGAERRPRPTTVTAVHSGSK
T1 sequence (Q96NX5 whole entry): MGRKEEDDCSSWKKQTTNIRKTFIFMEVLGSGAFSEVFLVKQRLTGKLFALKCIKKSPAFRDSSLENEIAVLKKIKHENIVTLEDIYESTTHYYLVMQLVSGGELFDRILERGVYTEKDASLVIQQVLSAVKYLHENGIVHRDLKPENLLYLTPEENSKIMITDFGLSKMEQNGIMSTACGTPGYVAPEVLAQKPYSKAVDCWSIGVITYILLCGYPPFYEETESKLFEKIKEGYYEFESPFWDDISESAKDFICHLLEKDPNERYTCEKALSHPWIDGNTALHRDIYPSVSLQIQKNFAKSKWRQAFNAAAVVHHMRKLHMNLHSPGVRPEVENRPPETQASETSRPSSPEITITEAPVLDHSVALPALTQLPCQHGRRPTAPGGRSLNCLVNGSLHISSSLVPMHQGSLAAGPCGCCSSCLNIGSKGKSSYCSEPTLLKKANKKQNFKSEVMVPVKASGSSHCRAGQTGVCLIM

| Compound | ΔTm at 10 µM (CAMK1G) | ΔTm at 10 µM (SRPK2A) | ΔTm at 10 µM (STK17AA) | ΔTm at 10 µM (PRPF4BA) | ΔTm at 10 µM (STK6A) | ΔTm at 10 µM (CSNK1G3) | ΔTm at 10 µM (CAMK1D) | ΔTm at 10 µM (RPS6KA1A) | ΔTm at 10 µM (STK24A) |
| --- | --- | --- | --- | --- | --- | --- | --- | --- | --- |
| Cc1ccc(Nc2nsnc(Nc3cccc(C(N)=O)c3)c2=O)cc1O [Compound 1, 3-({5-[(3-Hydroxy-4-methylphenyl)amino]-4-oxo-4H-1,2,6-thiadiazin-3-yl}amino)benzamide] | 1.8 °C | -0.2 °C | -0.5 °C | 0.7 °C | -0.3 °C | 0 °C | 0.8 °C | -0.6 °C | -0.1 °C |
| Cc1ccc(Nc2nsnc(Nc3ccc(C(N)=O)cc3)c2=O)cc1O [Compound 2, 4-({5-[(3-Hydroxy-4-methylphenyl)amino]-4-oxo-4H-1,2,6-thiadiazin-3-yl}amino)benzamide] | 3.3 °C | 0.6 °C | 2.2 °C | 0.1 °C | 1 °C | 0.1 °C | 4.3 °C | 1.3 °C | – |
| Cc1ccc(Nc2nsnc(Nc3ccc4c(c3)CS(=O)(=O)C4)c2=O)cc1O [Compound 3, 3-[(2,2-Dioxido-1,3-dihydrobenzo[c]thiophen-5-yl)amino]-5-[(3-hydroxy-4-methylphenyl)amino]-4H-1,2,6-thiadiazin-4-one] | 3 °C | 0.1 °C | 1.7 °C | 0.6 °C | 0.1 °C | -0.2 °C | 1.4 °C | -0.4 °C | -0.3 °C |
| CNC(=O)c1ccccc1Nc1nsnc(Nc2cccc(CS(C)(=O)=O)c2)c1=O [Compound 4, N-Methyl-2-([5-({3-[(methylsulfonyl)methyl]phenyl}amino)-4-oxo-4H-1,2,6-thiadiazin-3-yl]-amino}-benzamide] | 0.2 °C | -0.3 °C | -0.8 °C | 0.1 °C | -0.1 °C | -0.1 °C | -1.3 °C | -0.4 °C | 0 °C |
| CNC(=O)c1ccccc1Nc1nsnc(Nc2ccc(N3CCOCC3)cc2)c1=O [Compound 5, N-Methyl-2-({5-[(4-morpholinophenyl)amino]-4-oxo-4H-1,2,6-thiadiazin-3-yl}amino)benzamide] | 0.1 °C | -0.1 °C | -0.8 °C | 0.1 °C | 0.5 °C | 0 °C | -0.9 °C | -0.4 °C | -1.1 °C |
